From patent US6299906A, “Process for making submicron particles” (Hoffmann-La Roche Inc., priority 1998, dated 2001)
≈ marks a conversion by molar mass, not a printed value. Read-outs that look alike come from different tables or passages of the source. Values belong to the molecule of their own block, whether it stands above or below them.

Columns and labels:
[1] = Particle size distribution of Saquinavir by laser diffraction, influence of the pressure in the first container (Example 3); type: physicochemical; details: DME, Aerosol OT, 40° C.
Excerpt: (§1) The particle size distribution of very small particles of approximately 1 μm is difficult to determine accurately. Two commonly used methods are photon correlation spectroscopy (PCS) and laser diffraction. Photon correlation spectroscopy is commonly used for characterization of submicron suspensions and emulsions. Due to the principle of the measurement, movement of particles, particles larger than 3 to 5 μm cannot be seen with this method. With laser diffraction small particles, >0.1 μm, as well as larger particles, up to 2 mm, can be characterized in parallel. The diffraction of the light is thereby measured at small diffraction angles. For very small particles the method tends to overestimate the particle size due to transmission of light through the particles.
(§2) Formation of fractions of coarse particles was observed especially after clogging of the nozzle, e.g. expansion of a compound dissolved in a compressed gas without modifier. To be able to detect the presence of coarse particles, laser diffraction was chosen to characterize the whole suspension. With its wide dynamic range, laser diffraction allows the detection of particles up to 2 mm that cannot be seen by the PCS method. Since laser diffraction tends to overestimate the particle size (FIGS. 2, 3), all the particle sizes determined by laser diffraction can be considered as too large.
The autoclave was kept at a temperature of 40° C. with a water bath. Then the autoclave was filled with DME up to different pressures and equilibrated for 90 min.
The autoclave was connected to a second autoclave via a heated high pressure line, kept at 25° C., 5 bar. […] The pressure of the first autoclave was kept constant by pumping in additional gas.
The nozzle diameter was 0.1 mm. As commonly known a further decrease of particle size can be obtained by decrease of the nozzle diameter.

[2] = Particle size distribution of Saquinavir by Photon Correlation Spectroscopy (FIG. 2); type: physicochemical; details: batch no. 1051/30, Angle 90
Excerpt: as §1

[3] = Excerpt: as §1
To be able to detect the presence of coarse particles, laser diffraction was chosen to characterize the whole suspension. With its wide dynamic range, laser diffraction allows the detection of particles up to 2 mm that cannot be seen by the PCS method.
The autoclave was kept at a temperature of 40° C. with a water bath. Then the autoclave was filled with DME up to 200 bar and equilibrated for 90 min.
The autoclave was connected to a second autoclave via a heated high pressure line, kept at 25° C., at 5 bar. […] The pressure of the first autoclave was kept constant by pumping in additional gas.

[4] = Solubility of drug substances in liquid carbon dioxide and dimethyl ether (HPLC or gravimetric); type: physicochemical
Protocol: A comparison of solubilities of a number of pharmaceutical drug substances was performed as follows:
Approximately 3-5 g of the drug product was slightly compressed in a uniaxial press to avoid the formation of a stable suspension. The so compressed powder was placed in a pressure chamber with a sapphire glass (30 ml volume). The temperature of the pressure chamber was controlled by water bath. Then the pressure in the chamber was increased using the corresponding gas and equilibrated for 1-3 hours. After equilibration a 1.0 ml sample was drawn under constant pressure and temperature conditions using a high pressure line with a defined volume. […] The sample container was afterwards rinsed with the same liquid to collect the residues of the substance in the sample container.

[5] = Particle size distribution of THL by laser diffraction, influence of the spraying time (Example 2); type: physicochemical; details: for Dv 0.1 / Dv 0.5 / Dv 0.9: CO2 200 bar, 40° C., Brij 96
Excerpt: as §1, §2
150 g of solid THL and 75 g Brij 96 in a container with two sinter plates was charged into an autoclave having a volume of 6 liter. The autoclave was kept at a temperature of 40° C. with a water bath. Then the autoclave was filled with CO2 up to a pressure of 200 bar and equilibrated for 90 min.
The autoclave was connected to a second autoclave via a heated high pressure line, kept at 40° C. […] The dissolved THL was sprayed into 1.25 liter of an aqueous solution of Brij 96 (0.06%=1 CMC) in this second autoclave. The pressure of the first autoclave was kept constant at 200 bar by pumping in additional gas.
After 90, 150, and 180 minutes of spraying, a sample for particle size distribution was drawn. After 180 min the whole amount of THL/Brij was removed from the first container (≈12% THL in the final suspension).

[6] = pressure l00 bar (so in the source)
[7] = surfactant Brij 96, DME 200 bar, 40° C.
[8] = liquid co2, organic solvent or mixture, CO2, 45° C./200 bar, read-out: solubility (CO2)
[9] = organic solvent or mixture, dimethyl ether, 45° C./200 bar, read-out: solubility (DME)

Structure (SMILES): CCCCCCCCCCC[C@@H](C[C@@H]1OC(=O)[C@H]1CCCCCC)OC(=O)[C@H](CC(C)C)NC=O [Orlistat, Tetrahydrolipstatin]
- solubility ([4]; organic solvent or mixture, dimethyl ether, 20° C./4.5 bar, read-out: solubility (DME)): 178 mg/mL (≈ 359 mM)
- solubility ([4]; organic solvent or mixture, liquid CO2, 30° C./100 bar, read-out: solubility (CO2)): 6 mg/mL (≈ 12.1 mM)
- resulting particle size distribution ([5]; over the whole trial (up to 180 min spraying)): kept almost constant over the whole trial
- Dv 0.1 ([5]; spraying time 90 min): 0.6 μm
- Dv 0.5 ([5]; spraying time 90 min): 1.4 μm
- Dv 0.9 ([5]; spraying time 90 min): 2.9 μm
- Dv 0.1 ([5]; spraying time 150 min): 0.4 μm
- Dv 0.5 ([5]; spraying time 150 min): 1.5 μm
- Dv 0.9 ([5]; spraying time 150 min): 3.5 μm
- Dv 0.1 ([5]; spraying time 180 min): 0.9 μm
- Dv 0.5 ([5]; spraying time 180 min): 2.1 μm
- Dv 0.9 ([5]; spraying time 180 min): 4.5 μm

Structure (SMILES): CC1=C(/C=C/C(C)=C/C=C/C(C)=C\C(=O)O)C(C)(C)CCC1 [Isotretionin]
- solubility [4, 8]: 3 mg/mL (≈ 9.99 mM)
- solubility [4, 9]: 60 mg/mL (≈ 200 mM)

Structure (SMILES): O=C(NCCN1CCOCC1)c1ccc(Cl)cc1 [Moclobemide]
- solubility [4, 8]: 3.5 mg/mL (≈ 13 mM)
- solubility [4, 9]: 37 mg/mL (≈ 138 mM)

Other lines, results leading:

- Dv 0.1 ([1]; pressure 50 bar): 0.5 μm
- Dv 0.5 ([1]; pressure 50 bar): 3.8 μm
- Dv 0.9 ([1]; pressure 50 bar): 6.4 μm
- Dv 0.1 ([1]; pressure 200 bar): 0.9 μm
- Dv 0.5 ([1]; pressure 200 bar): 1.5 μm
- Dv 0.9 ([1]; pressure 200 bar): 2.4 μm
- Dv 0.1 ([1]; pressure 280 bar): 0.4 μm
- Dv 0.5 ([1]; pressure 280 bar): 0.8 μm
- Dv 0.9 ([1]; pressure 280 bar): 1.7 μm
- Dv 0.1 [1, 6]: 1.0 μm
- Dv 0.5 [1, 6]: 2.1 μm
- Dv 0.9 [1, 6]: 4.5 μm
- Poly [2]: 0.031
- ZAve [2]: 254.7
- Dv 0.1 ([3]; surfactant Aerosol OT, DME): 0.9 μm
- Dv 0.5 ([3]; surfactant Aerosol OT, DME): 1.5 μm
- Dv 0.9 ([3]; surfactant Aerosol OT, DME): 2.4 μm
- Dv 0.1 [3, 7]: 0.7 μm
- Dv 0.5 [3, 7]: 1.4 μm
- Dv 0.9 [3, 7]: 3.0 μm
- solubility [4, 8]: < 1 mg/mL
- solubility ([4]; organic solvent or mixture, dimethyl ether, 25° C./100 bar, read-out: solubility (DME)): > 100 mg/mL
Structure (SMILES): CC(C)(C)NC(=O)[C@@H]1C[C@@H]2CCCC[C@@H]2CN1C[C@@H](O)[C@H](Cc1ccccc1)NC(=O)[C@H](CC(N)=O)NC(=O)c1ccc2ccccc2n1 [Saquinavir]

- solubility [4, 8]: < 1 mg/mL
- solubility [4, 9]: 90 mg/mL (≈ 163 mM)
Structure (SMILES): COc1ccccc1Oc1c(NS(=O)(=O)c2ccc(C(C)(C)C)cc2)nc(-c2ncccn2)nc1OCCO [Bosentan]
